Laboratory results published in US12685315B2, “Herbicidal combination” (UPL do Brasil Industria e Comercio de Insumos Agropecuarios …, priority 2019, dated 2026).

Tests used:
Eleusine indica = experiment: Field trial of triple mixes of amicarbazone, pre and post-emergence weed control; format: in vivo; conditions: Table 10, dose g ai/ha: Amicarbazone 75, Mesotrione 38, Ametryn 250, mix AMC + AME + MST 75 + 38 + 250
Experimental: (§1) Field trials were done to evaluate the efficacy and synergism of the triple mixes of amicarbazone with other herbicides for the control of weeds in pre and post-emergence application.
(§2) The composition of the present invention was applied. This test was performed for species of weeds: Grasses namely BRADC=Brachiaria decumbens, CCHEC=Cenchrus echinatus, ELEIN=Eleusine indica, TRCIN=Digitaria insularis and Broadleaves namely IAQGR=Ipomoea grandifolia, EPHHL=Euphorbia heterophylla, COMBE=Commelina benghalensis. Data were collected at various period after application of the composition to the soil and calculated.

Commelina benghalensis = experiment: Field trial of triple mixes of amicarbazone, pre-emergence weed control; format: in vivo; conditions: dose g ai/ha: Amicarbazone 75, Mesotrione 38, Ametryn 250, mix AMC + AME + MST 75 + 38 + 250
Experimental: as §1, §2

## CS(=O)(=O)c1ccc(C(=O)C2C(=O)CCCC2=O)c([N+](=O)[O-])c1 [Mesotrione]
Eleusine indica; Post-Emergence, 14 DAA
  % Control: 57.5%
Eleusine indica; Post-Emergence, 21 DAA
  % Control: 43.8%
Eleusine indica; Post-Emergence, 28 DAA
  % Control: 35.0%
Eleusine indica; Pre-Emergence, 14 DAA
  % Control: 26.3%
Eleusine indica; Pre-Emergence, 21 DAA
  % Control: 2.5%
Eleusine indica; Pre-Emergence, 28 DAA
  % Control: 0.0%
Commelina benghalensis; Table 11, 21 DAA
  % Control: 67.5%
Commelina benghalensis; Table 11, 28 DAA
  % Control: 65.0%
Commelina benghalensis; Table 11, 35 DAA
  % Control: 51.3%
